In patent US20180117082A1, “ANTIFUNGAL COMPOSITION/TREATMENT” (THE UNIVERSITY OF NOTTINGHAM, priority 2015, published 2018):

Tests used:
R. solani = assay: Growth inhibition assay in PDB medium (OD600); conditions: same concentrations as in the combinations (FIG. 6, FIG. 7)
Protocol: (§1) Candida spp. or S. cerevisiae were inoculated from YEPD plates to YEPD broth (composition as above, minus agar) and cultured overnight at 30° C., 120 rev min^−1. Overnight cultures were diluted to OD600˜0.5 and cultured for a further 4 h in fresh YEPD before dilution of these experimental cultures to OD600˜0.01 or ˜0.1 in the same medium. Aliquots (300 μl) of the diluted culture plus any chemical supplements (see above), as specified, were transferred to 48-well plates (Greiner Bio-One). OD600 was monitored continuously in a BioTek Powerwave-XS microplate spectrophotometer, with shaking at 30 C. […] Spores of R. solani or Z. tritici were inoculated from PDA plates to potato dextrose broth (PDB; Fluka) (20,000 spores ml^−1). Aliquots (150 μl) of the diluted culture plus any chemical supplements, as specified, were transferred to 96-well plates (Greiner Bio-one) and cultured over 8 d at 24° C., 120 rev min-1. OD600 was monitored every day in a BioTek EL800 microplate spectrophotometer.

Zygosaccharomyces bailii = assay: Growth inhibition assay on solid medium, spotted serial dilutions; type: cell-based; conditions: same concentrations as in the combinations, each agent alone (FIG. 2A)
From the text: Images were captured after 2 d (YEPD) or 3 d (YNB) growth at 30 C. For growth-inhibition assays on solid medium with R. solani, circular sections of ˜0.5 cm diameter were excised from cultures on PDA and transferred to the centre of fresh plates. Images were captured after 3 d growth at 28 C and the total mycelial area determined using ImageJ and GIMP2 software. Where specified, chemical supplements were included in the solid media.

Rhizoctonia solani = assay: Growth inhibition assay on solid medium (PDA agar), mycelial outgrowth; type: cell-based; conditions: 300 μg ml^−1 paromomycin or 15 mM molybdate alone (FIG. 2B)
Protocol: For qualitative growth-inhibition assays with yeasts on solid medium, experimental cultures prepared as described above were adjusted to OD600˜2.0, 0.2, 0.02, 0.002, 0.0002 and the dilution series spotted (4 μl) on to either YEPD agar (above) or yeast nitrogen base (YNB) agar: 0.69% (w/v) yeast nitrogen base without amino acids (Formedium; Norfolk, UK) supplemented with 2% (w/v) D-glucose, 0.06 mg ml^−1 leucine, 0.02 mg ml^−1 histidine, 0.02 mg ml^−1 uracil and 2% (w/v) bacteriological agar (Sigma-Aldrich). Images were captured after 2 d (YEPD) or 3 d (YNB) growth at 30 C. For growth-inhibition assays on solid medium with R. solani, circular sections of ˜0.5 cm diameter were excised from cultures on PDA and transferred to the centre of fresh plates. Images were captured after 3 d growth at 28 C and the total mycelial area determined using ImageJ and GIMP2 software. Where specified, chemical supplements were included in the solid media.

Candida albicans = assay: Growth inhibition assay in YEPD broth (OD600); type: cell-based; conditions: 25 μM chromate, 200 μg ml^−1 paromomycin or 10 μg ml^−1 hygromycin, each alone (FIG. 1A)
Protocol: as §1

Row | Structure (SMILES) | inhibitory effect, agent individually (R. solani) | effect on growth, agent alone (Zygosaccharomyces bailii) | growth-inhibitory effect, agent alone (Rhizoctonia solani) | inhibitory effect on growth, agent alone (Candida albicans)
1 | [Cu] [copper] | none of these agents had an inhibitory effect individually | – | – | –
2 | CCC[C@H](N)C(=O)O [norvaline] | none of these agents had an inhibitory effect individually | – | – | –
3 | O=S(=O)(O)c1cc(N=C=S)ccc1C=Cc1ccc(N=C=S)cc1S(=O)(=O)O [DIDS, 4,4′-diisothio-cyanotostilbene-2,2′-disulphonate] | – | neither agent alone had a significant effect on growth | – | –
4 | [O]=[Mo](=[O])([O-])[O-] [molybdate] | – | neither agent alone had a significant effect on growth | neither agent alone had a marked growth-inhibitory effect | –
5 | NC[C@@H]1O[C@H](O[C@H]2[C@@H](O)[C@H](O[C@@H]3[C@@H](O)[C@H](N)C[C@H](N)[C@H]3O[C@H]3O[C@H](CO)[C@@H](O)[C@H](O)[C@H]3N)O[C@@H]2CO)[C@H](N)[C@@H](O)[C@@H]1O [paromomycin] | – | neither agent alone had a significant effect on growth | neither agent alone had a marked growth-inhibitory effect | no discernible inhibitory effect
6 | CN(C)C(=S)SSC(=S)N(C)C [thiram] | none of these agents had an inhibitory effect individually | – | – | –
7 | O=[Se](=O)(O)O [selenate] | none of these agents had an inhibitory effect individually | – | – | –
